Assay results taken from patent publication US20120252801A1, “ANTIFUNGAL COMPOUNDS” (Katholieke Universiteit Leuven, K.U.Leuven R&D, priority 2009, published 2012).
Values after ≈ are worked out from the molar mass of the structure shown.

Key:
Aspergillus flavus = experiment: Minimal inhibitory concentration (MIC) against A. flavus; format: cell-based; settings: 24 h at 25° C. in ½ PDB, minimal concentration that inhibits growth
Experimental: (§1) To determine the MIC and MFC of a compound against Aspergillus flavus, Fusarium oxysporum or F. culmorum, a 2-fold dilution series of the compounds of the invention was incubated with the corresponding spore suspension in ½ PDB (potato dextrose broth, Difco) (2×10^4 spores/ml). […] MFC was determined as the minimal concentration of a compound resulting in less than 1% survival of the fungal culture relative to the DMSO control.

C. glabrata = experiment: Minimal fungicidal concentration (MFC) against C. glabrata; format: cell-based, Candida glabrata; settings: Nakaseomyces glabratus; 24 h at 37° C. in PBS; less than 1% survival relative to DMSO control
Experimental: (§2) Two-fold dilution series of the compounds were prepared in 50% DMSO. 5 μl of these series were added to 95 μl PBS buffer inoculated with 1/500 cells of an overnight culture of either C. albicans, C. glabrata or C. krusei (final DMSO conc 2%). 2% DMSO served as negative control. After 24 h incubation at 37° C. of these cultures with the antifungal compounds in PBS, the cell cultures were plated on YPD agar and colony forming units (CFUs) were determined after incubation of the plates for 2 days. MFC was determined as the minimal concentration of a compound resulting in less than 1% survival of the yeast culture relative to the DMSO control.

A. fumigatus = experiment: Minimal inhibitory concentration (MIC) against A. fumigatus; format: cell-based; settings: Aspergillus fumigatus; minimal concentration that inhibits growth
C. albicans SC5314 = experiment: Minimal fungicidal concentration (MFC) against C. albicans; format: cell-based; settings: Candida albicans, 24 h at 37° C. in PBS, less than 1% survival relative to DMSO control
Experimental: as §2

Fusarium oxysporum = experiment: Minimal inhibitory concentration (MIC) against F. oxysporum; format: cell-based; settings: 24 h at 25° C. in ½ PDB, minimal concentration that inhibits growth
Experimental: as §1

Row | SMILES | MIC (Aspergillus flavus) [µg/mL] | MFC (C. glabrata) [µg/mL] | MIC (A. fumigatus) [µg/mL] | MFC (C. albicans SC5314) [µg/mL] | MIC (Fusarium oxysporum) [µg/mL]
1 | CCN1C[C@@H](c2ccccc2)OC(=O)C1CC(=O)Nc1ccc(C(C)C)cc1 (stereo partly drawn) [CPD-04, 2-((6R)-4-ethyl-2-oxo-6-phenylmorpholin-3-yl)-N-(4-isopropylphenyl)acetamide] | 12.5 (≈ 32.9 µM) | 6.25 (≈ 16.4 µM) | 0.8 (≈ 2.1 µM) | 12.5 (≈ 32.9 µM) | 
2 | CCN1CC(C)(C)OC(=O)C1CC(=O)NCc1cccc(-c2ccccc2)c1 (stereo not shown) [CPD-82, N-(biphenyl-3-ylmethyl)-2-(4-ethyl-6,6-dimethyl-2-oxomorpholin-3-yl)acetamide] | 25 (≈ 65.7 µM) | 12.5 (≈ 32.9 µM) | 3.12 (≈ 8.21 µM) | 12.5 (≈ 32.9 µM) | 25 (≈ 65.7 µM)
3 | CCN1CC(C)(C)OC(=O)C1CC(=O)NCc1ccccc1C(F)(F)F (stereo not shown) [CPD-77, 2-(4-ethyl-6,6-dimethyl-2-oxomorpholin-3-yl)-N-(2-(trifluoromethyl)benzyl)acetamide] | 25 (≈ 67.1 µM) | 12.5 (≈ 33.6 µM) | 3.12 (≈ 8.39 µM) | 25 (≈ 67.1 µM) | 25 (≈ 67.1 µM)
4 | CCN1CC(C)(C)OC(=O)C1CC(=O)NCc1ccc(-c2ccccc2)cc1 (stereo not shown) [CPD-73, N-(biphenyl-4-ylmethyl)-2-(4-ethyl-6,6-dimethyl-2-oxomorpholin-3-yl)acetamide] |  |  |  | 25 (≈ 65.7 µM) | 
5 | CCN1CC(C)(C)OC(=O)C1CC(=O)NCc1ccco1 (stereo not shown) [CPD-23, 2-(4-ethyl-6,6-dimethyl-2-oxomorpholin-3-yl)-N-(furan-2-ylmethyl)acetamide] | 50 (≈ 170 µM) | > 50 | 25 (≈ 84.9 µM) | 50 (≈ 170 µM) | 50 (≈ 170 µM)
6 | CCN1CC(C)(C)OC(=O)C1CC(=O)NCc1cccc(C(F)(F)F)c1 (stereo not shown) [CPD-78, 2-(4-ethyl-6,6-dimethyl-2-oxomorpholin-3-yl)-N-(3-(trifluoromethyl)benzyl)acetamide] | > 25 | 12.5 (≈ 33.6 µM) | 6.25 (≈ 16.8 µM) | 25 (≈ 67.1 µM) | > 25
7 | CCN1C[C@H](c2ccccc2)OC(=O)C1CC(=O)Nc1ccc(C(C)C)cc1 (stereo partly drawn) [CPD-02, 2-((6S)-4-ethyl-2-oxo-6-phenylmorpholin-3-yl)-N-(4-isopropylphenyl)acetamide] | 6.25 (≈ 16.4 µM) | 12.5 (≈ 32.9 µM) | 0.8 (≈ 2.1 µM) | 12.5 (≈ 32.9 µM) | 
8 | CCN1CC(c2ccccc2)OC(=O)C1CC(=O)Nc1ccc(C(C)C)cc1 (stereo not shown) [CPD-01, 2-(4-ethyl-2-oxo-6-phenylmorpholin-3-yl)-N-(4-isopropylphenyl)acetamide] | 12.5 (≈ 32.9 µM) | 12.5 (≈ 32.9 µM) | 0.8 (≈ 2.1 µM) | 12.5 (≈ 32.9 µM) | 
9 | CCN1CC(C)(C)OC(=O)C1CC(=O)NCc1ccccc1Cl (stereo not shown) [CPD-57, N-(2-chlorobenzyl)-2-(4-ethyl-6,6-dimethyl-2-oxomorpholin-3-yl)acetamide] |  |  |  | 25 (≈ 73.8 µM) | 
10 | CCN1CC(C)(C)OC(=O)C1CC(=O)NCc1ccc(C(F)(F)F)cc1 (stereo not shown) [CPD-71, 2-(4-ethyl-6,6-dimethyl-2-oxomorpholin-3-yl)-N-(4-(trifluoromethyl)benzyl)acetamide] |  |  |  | 25 (≈ 67.1 µM) | 
11 | CCN1C[C@H](C)OC(=O)C1CC(=O)Nc1ccc(C(C)C)cc1 (stereo partly drawn) [CPD-03, 2-((6S)-4-ethyl-6-methyl-2-oxomorpholin-3-yl)-N-(4-isopropylphenyl)acetamide] | 6.25 (≈ 19.6 µM) | 6.25 (≈ 19.6 µM) | 0.8 (≈ 2.51 µM) | 12.5 (≈ 39.3 µM) | 
12 | CCN1CC(C)(C)OC(=O)C1CC(=O)NCc1ccccc1C (stereo not shown) [CPD-69, 2-(4-ethyl-6,6-dimethyl-2-oxomorpholin-3-yl)-N-(2-methylbenzyl)acetamide] |  |  |  | 25 (≈ 78.5 µM) | 
13 | CCN1CC(C)(C)OC(=O)C1CC(=O)NCc1ccc(OC)cc1 (stereo not shown) [CPD-72, 2-(4-ethyl-6,6-dimethyl-2-oxomorpholin-3-yl)-N-(4-methoxybenzyl)acetamide] |  |  |  | 25 (≈ 74.8 µM) | 
14 | CCN1C[C@@H](C)OC(=O)C1CC(=O)Nc1ccc(C(C)C)cc1 (stereo partly drawn) [CPD-05, 2-((6R)-4-ethyl-6-methyl-2-oxomorpholin-3-yl)-N-(4-isopropylphenyl)acetamide] | 6.25 (≈ 19.6 µM) | 6.25 (≈ 19.6 µM) | 0.8 (≈ 2.51 µM) | 12.5 (≈ 39.3 µM) | 
15 | CCN1CC(C)(C)OC(=O)C1CC(=O)NCc1cccc(C)c1 (stereo not shown) [CPD-70, 2-(4-ethyl-6,6-dimethyl-2-oxomorpholin-3-yl)-N-(3-methylbenzyl)acetamide] |  |  |  | 25 (≈ 78.5 µM) | 
